Values after ≈ are worked out from the molar mass of the structure shown. Read-outs that look alike come from different tables or passages of the source.
What was measured:
[1] = test system: fluoroquinolone-resistant S. aureus Monza-FD1; experiment: MIC, broth microdilution (CLSI); format: cell-based, Staphylococcus aureus
[2] = test system: Streptococcus pneumoniae ATCC 49619; experiment: MIC, broth microdilution (CLSI); format: cell-based
[3] = test system: fluoroquinolone-resistant S. aureus Monza-FD1; experiment: MBC determination (plating of MIC wells); format: cell-based; settings: Staphylococcus aureus; S. aureus Monza-FD1 (fluoroquinolone-resistant); read-out: MBC
Method: (§1) Plates were incubated at 37 °C in aerobic conditions or in 5% CO2 atmosphere and checked for bacterial growth after 24 h.

[4] = test system: Enterococcus faecalis ATCC 29212; experiment: MIC, broth microdilution (CLSI); format: cell-based
[5] = test system: Pseudomonas aeruginosa ATCC 27853; experiment: MIC, broth microdilution (CLSI); format: cell-based
[6] = test system: macrolide-resistant S. pneumoniae Monza-82; experiment: MIC, broth microdilution (CLSI); format: cell-based, Streptococcus pneumoniae; settings: for sensitivity of the strain to the compound: S. pneumoniae Monza-82
[7] = test system: macrolide-resistant S. pneumoniae Monza-82; experiment: MBC determination (plating of MIC wells); format: cell-based, Streptococcus pneumoniae; settings: for MBC: Streptococcus pneumoniae, S. pneumoniae Monza 82 (macrolide-resistant), read-out: MBC
Method: as §1

[8] = test system: methicillin-resistant Staphylococcus aureus (MRSA) Monza-PFI; experiment: MIC, broth microdilution (CLSI); format: cell-based
[9] = test system: Staphylococcus aureus ATCC 29213; experiment: MIC, broth microdilution (CLSI); format: cell-based
[10] = test system: Escherichia coli ATCC 25922; experiment: MIC, broth microdilution (CLSI); format: cell-based
S. aureus strains = experiment: MIC, summary in text for S. aureus strains; settings: Staphylococcus aureus
Method: (§2) Representatives of Gram-positive and Gram-negative bacteria were selected for the antimicrobial susceptibility tests. Three Gram-positive reference strains (Staphylococcus aureus ATCC 29213, Streptococcus pneumoniae ATCC 49619, and Enterococcus faecalis ATCC 29212) and two Gram-negative reference strains (Escherichia coli ATCC 25922 and Pseudomonas aeruginosa ATCC 27853) were used. Furthermore, antibacterial activity of the isolated compounds was also assessed against recently isolated clinical strains, selected and characterized as resistant or multidrug-resistant (MDR), from the MicroMiB collection owned and maintained by the Laboratory of Clinical Microbiology and Virology of the University of Milano-Bicocca, Monza, Italy: a methicillin-resistant Staphylococcus aureus (MRSA) Monza-PFI, a fluoroquinolone-resistant S. aureus Monza-FD1, and a macrolide-resistant S. pneumoniae Monza-82.
(§3) MICs were determined following Clinical and Laboratory Standards Institute (CLSI) guidelines for the broth microdilution method [33]. […]
(§4) The plates were incubated at 37 °C for 18–24 h. After the incubation, each well was checked for the absence of bacterial pellets and the clearness of the solution; then, the MIC value (μg/mL), defined as the lowest concentration of antimicrobial agent causing visible inhibition of bacterial growth, was determined.

[11] = test system: Staphylococcus aureus ATCC 29213; experiment: MBC determination (plating of MIC wells); format: cell-based; settings: ATCC29213, S. aureus ATCC 29213, read-out: MBC
Method: as §1

[12] = test system: methicillin-resistant Staphylococcus aureus (MRSA) Monza-PFI; experiment: MBC determination (plating of MIC wells); format: cell-based; settings: S. aureus Monza-PFI (MRSA), read-out: MBC
Method: as §1

[13] = test system: Mycobacterium tuberculosis; parameters: method as in ref 86 Ganihigama et al.; settings: ref 86 Ganihigama et al.; cited from earlier work
[14] = test system: influenza A virus strain A/Puerto Rico/8/34 (IAV); experiment: Plaque reduction assay (PRA) on MDCK cells; format: cell-based; settings: Influenza A virus, MDCK, 48 h; read-out: inhibition of replication of IAV
[15] = test system: herpes simplex virus 1 (HSV-1) clinical isolate; experiment: Plaque reduction assay (PRA) on VERO cells; format: cell-based; settings: 48 h p.i.
P. aeruginosa = test system: P. aeruginosa; parameters: method as in PMID 16261521; settings: cited from earlier work
Klebsiella pneumoniae = test system: Klebsiella pneumoniae; parameters: method as in PMID 16261521; settings: cited from earlier work
Micrococcus luteus = test system: Micrococcus luteus; parameters: method as in PMID 16261521; settings: cited from earlier work
bacteria = test system: bacteria; parameters: method as in ref 20 Zin et al.; settings: ref 20 Zin et al.; cited from earlier work
in vitro [16] = settings: African green monkey
Method: (§5) African green monkey kidney cells (VERO, ATCC-American Type Culture Collection CCL-81) and Madin Darby Canine Kidney cells (MDCK, ATCC® CRL-2936™) were propagated in Dulbecco’s modified Eagle medium (DMEM; Euroclone), supplemented with 10% fetal bovine serum (FBS; Euroclone), 2 mM L-glutamine, 1 mM sodium pyruvate, 100 U/mL penicillin, and 100 μg/mL streptomycin sulfate.
(§6) The plates were incubated for 48 h at 37 °C, and then 100 μL of CellTiter-Glo reagent (Promega) was added to lyse the cells and to determine cell viability according to the producer’s instructions.

in vitro [17] = settings: dog
Method: as §5, §6

[18] = test system: reference strains and multidrug-resistant isolates; experiment: Antibacterial activity, whole panel (MIC); settings: concentrations tested 0.015–32 μg/mL
Method: as §2, §3, §4

[19] = Staphylococcus aureus, S. aureus Monza-FD1 (fluoroquinolone-resistant), read-out: MIC
[20] = ATCC49619, S. pneumoniae ATCC 49619, read-out: MIC
[21] = ATCC29212, E. faecalis ATCC 29212, read-out: MIC
[22] = ATCC27853, P. aeruginosa ATCC 27853, read-out: MIC
[23] = Streptococcus pneumoniae, S. pneumoniae Monza 82 (macrolide-resistant), read-out: MIC
[24] = S. aureus Monza-PFI (MRSA), read-out: MIC
[25] = ATCC29213, S. aureus ATCC 29213, read-out: MIC
[26] = ATCC25922, E. coli ATCC 25922, read-out: MIC

| SMILES | MIC [1, 19] | MIC [2, 20] | MIC [4, 21] | MIC [5, 22] | MIC [6, 23] | MBC [7] | MIC [8, 24] | MIC [9, 25] | MIC [10, 26] | also measured |
| --- | --- | --- | --- | --- | --- | --- | --- | --- | --- | --- |
| COc1cc(O)c2c(c1)C(=O)c1cc(C)c(C(=O)O)c(O)c1C2=O [Cinnalutein (9), cinnalutein] | 128 µg/mL (≈ 390 µM) | > 128 µg/mL | > 128 µg/mL | > 128 µg/mL | 32 µg/mL (≈ 97.5 µM) | > 128 µg/mL | > 128 µg/mL | > 128 µg/mL | > 128 µg/mL | MIC ([1]; S. aureus Monza-FD1 (fluoroquinolone-resistant)): 128 µg/mL (≈ 390 µM); MBC [3]: > 128 µg/mL; MIC ([6]; S. pneumoniae Monza 82 (macrolide-resistant)): 32 µg/mL (≈ 97.5 µM) |
| COc1cc(O)cc2cc3c(c(O)c12)C(=O)C[C@](C)(O)C3 [Asperflavin (8), asperflavin] | 64 µg/mL (≈ 222 µM) | > 128 µg/mL | > 128 µg/mL | > 128 µg/mL | 32 µg/mL (≈ 111 µM) | 128 µg/mL (≈ 444 µM) | 128 µg/mL (≈ 444 µM) | 64 µg/mL (≈ 222 µM) | > 128 µg/mL | MIC (S. aureus strains): 64 µg/mL (≈ 222 µM); MBC [11]: > 128 µg/mL; MBC [3]: > 128 µg/mL; MBC [12]: > 128 µg/mL; bactericidal activity ([7]; S. pneumoniae Monza-82 strain only): positive results; MIC [13]: 25 µg/mL (≈ 86.7 µM) |
| C=CC(C)(C)c1[nH]c2c(CC=C(C)C)cc(CC=C(C)C)cc2c1C[C@@H]1NC(=O)[C@H](C)NC1=O [Echinulin (1), echinulin] | – | – | – | – | – | – | – | – | – | MIC ([1]; Staphylococcus aureus): > 128 µg/mL; MIC ([2]; ATCC49619): > 128 µg/mL; MIC ([4]; ATCC29212): > 128 µg/mL; MIC ([5]; ATCC27853): > 128 µg/mL; MIC ([6]; Streptococcus pneumoniae): > 128 µg/mL; MIC ([8]; MRSA): > 128 µg/mL; MIC ([9]; ATCC29213): > 128 µg/mL; MIC ([10]; ATCC25922): > 128 µg/mL |
| CNC(C)C1CCC(N)C(OC2C(N)CC(N)C(OC3OCC(C)(O)C(NC)C3O)C2O)O1 (centres unmarked) [Gentamicin, reference compound] | 1 µg/mL (≈ 2.09 µM) | – | > 128 µg/mL | 1 µg/mL (≈ 2.09 µM) | – | – | > 128 µg/mL | 0.5 µg/mL (≈ 1.05 µM) | 0.5 µg/mL (≈ 1.05 µM) | – |
| CC[C@H]1OC(=O)[C@H](C)[C@@H](O[C@H]2C[C@@](C)(OC)[C@@H](O)[C@H](C)O2)[C@H](C)[C@@H](O[C@@H]2O[C@H](C)C[C@H](N(C)C)[C@H]2O)[C@](C)(O)C[C@@H](C)C(=O)[C@H](C)[C@@H](O)[C@]1(C)O [Erythromycin, erythromycin, reference compound] | 0.5 µg/mL (≈ 0.681 µM) | 0.12 µg/mL (≈ 0.164 µM) | 2 µg/mL (≈ 2.73 µM) | – | 16 µg/mL (≈ 21.8 µM) | – | 8 µg/mL (≈ 10.9 µM) | 0.5 µg/mL (≈ 0.681 µM) | – | – |
| C=CC(C)(C)c1[nH]c2cc(CC=C(C)C)ccc2c1/C=C1\NC(=O)[C@H](C)NC1=O [Neoechinulin D (7), neoechinulin D] | > 128 µg/mL | > 128 µg/mL | > 128 µg/mL | > 128 µg/mL | 64 µg/mL (≈ 163 µM) | > 128 µg/mL | > 128 µg/mL | > 128 µg/mL | > 128 µg/mL | inhibition at 50 µg/mL [14]: 70%; sensitivity of the strain to the compound [6]: showed sensitivity; inhibition at 50 µg/mL ([15]; Human alphaherpesvirus 1, compound at 50 µg/mL, read-out: inhibition of HSV-1 replication): 100%; inhibition of HSV-1 replication ([15]; compound at 50 µg/mL): total inhibition |
| COc1cc(O)c2c(c1)C(=O)c1cc(C)cc(O)c1C2=O [Physcion (3), physcion] | > 32 µg/mL | > 32 µg/mL | > 32 µg/mL | > 32 µg/mL | 16 µg/mL (≈ 56.3 µM) | > 32 µg/mL | > 32 µg/mL | > 32 µg/mL | > 32 µg/mL | MIC (P. aeruginosa): 200 µg/mL (≈ 704 µM); inhibition at 25 µg/mL [14]: 80%; sensitivity of the strain to the compound [6]: showed sensitivity; inhibition at 25 µg/mL ([15]; Human alphaherpesvirus 1, compound at 25 µg/mL, read-out: inhibition of HSV-1 replication): 100%; inhibition of HSV-1 replication ([15]; compound at 25 µg/mL): total inhibition; MIC (Klebsiella pneumoniae): 250 µg/mL (≈ 879 µM); MIC (Micrococcus luteus): 200 µg/mL (≈ 704 µM); antibacterial activity (bacteria): no antibacterial activity |
| C[C@@H]1NC(=O)[C@H](Cc2c[nH]c3ccccc23)NC1=O [Cyclo-L-Trp-L-Ala (10), cyclo-L-Trp-L-Ala] | > 128 µg/mL | > 128 µg/mL | > 128 µg/mL | > 128 µg/mL | > 128 µg/mL | – | > 128 µg/mL | > 128 µg/mL | > 128 µg/mL | – |
| CN(C)[C@@H]1C(O)=C(C(N)=O)C(=O)[C@@]2(O)C(O)=C3C(=O)c4c(O)cccc4[C@@](C)(O)[C@H]3C[C@@H]12 [Tetracycline, tetracycline, reference compound] | 1 µg/mL (≈ 2.25 µM) | 0.12 µg/mL (≈ 0.27 µM) | 8 µg/mL (≈ 18 µM) | 8 µg/mL (≈ 18 µM) | ≤ 0.06 µg/mL | – | 1 µg/mL (≈ 2.25 µM) | 0.12 µg/mL (≈ 0.27 µM) | 1 µg/mL (≈ 2.25 µM) | – |
| CCCCCCCc1c(O)cc(CC=C(C)C)c(O)c1C=O [Flavoglaucin (5), flavoglaucin] | > 32 µg/mL | > 32 µg/mL | > 32 µg/mL | > 32 µg/mL | > 32 µg/mL | – | > 32 µg/mL | > 32 µg/mL | > 32 µg/mL | CC50 at 48 h (in vitro [16]): < 12.5 µg/mL; CC50 at 48 h (in vitro [17]): < 12.5 µg/mL; antibacterial activity [18]: did not show antibacterial activity |
| CC(=O)O[C@H]1C[C@@]2(C)[C@@H](C[C@@H](O)[C@H]3[C@@]4(C)CC[C@@H](O)[C@@H](C)[C@@H]4CC[C@@]32C)/C1=C(\CCC=C(C)C)C(=O)O [Fusidic acid, fusidic acid, reference compound] | – | 4 µg/mL (≈ 7.74 µM) | 4 µg/mL (≈ 7.74 µM) | – | – | – | – | 0.12 µg/mL (≈ 0.232 µM) | – | – |
